Patent US10143737B2, “Method for the vaccination against HIV” (Bionor Immuno AS, priority 2014, dated 2018)
Bridges are numbered along the chain shown (N, C = ends). Roman numbers before positions name the chains, in order. Where no end group is shown, it is not given here.

Experiments:
HIV-specific T-cells = conditions: dendritic cells presenting Gag- or Nef-specific peptides; cited from earlier work
C5/gp41 (015/201) = assay: Rabbit immunization with BI400-B vaccine, serum ELISA; format: in vivo, New Zealand White female rabbits; conditions: 500 μg intradermally weeks 0, 2, 6 in Freund's adjuvant; in the presence of PBS
Procedure: New Zealand White female rabbits (n=3) were immunized intradermally at weeks 0, 2 & 6 with 1 ml of BI400-B vaccine consisting of 500 μg BI400-B in 50% V/V Freund's adjuvant (i.e. Complete Freund's adjuvant used for priming, followed by boostings with Incomplete Freund's adjuvant). Individual blood serum was isolated for ELISA.
50-100 μl of a mixture of BI400-015 and -201 (pre-incubated in Coating buffer—0.05M Na2CO3 pH9.6; denoted CB—in cold at 16 μg/ml for each peptide 1-3 days prior to coating) or just CB (background control) was used for coating wells in microtiter plates at 4° C. overnight. Plates were then washed 3x with washing buffer (PBS+1% v/v Triton-X100; denoted WB), followed by 2 h blocking at room temperature (RT) with 200 μl/well of blocking buffer (PBS+1% w/v BSA). […] Plates were finally quenched by adding 100 μl/well of Quench solution (0.1M TRIS+0.1M EDTA+0.5M NaOH+0.01% w/v NaN3; pH14), followed by ELISA reader (ASYS UVM 340) at 550 nm.

[1] = test system: Anti-C5/gp41 sera from BI400-B immunized rabbits; assay: Competitive ELISA for rabbit sera after immunization with BI400-B; format: binding; conditions: for Inhibition of binding of rabbit sera to C5/gp41 (015/201): competitor preincubated with serum, 10-1000 μM
Procedure: 50-100 μl of a mixture of BI400-015 and -201 (pre-incubated in Coating buffer—0.05M Na2CO3 pH9.6; denoted CB—in cold at 16 μg/ml for each peptide 1-3 days prior to coating) or just CB (background control) was used for coating wells in microtiter plates at 4° C. overnight. Plates were then washed 3x with washing buffer (PBS+1% v/v Triton-X100; denoted WB), followed by 2 h blocking at room temperature (RT) with 200 μl/well of blocking buffer (PBS+1% w/v BSA). Plates were then washed 3x with WB, followed by 1 h incubation at 37° C. with 60-100 μl/well of added rabbit serum samples (diluted 1:10-1:250 final concentration) preincubated together (4° C. overnight) with serial dilutions (ranging from 10-1000 μM final concentration) of 400-SEQ.B, BI400-015, BI400-201, BI400-204d, recombinant gp41 (Shin-Won Scientific, SWO 102 gp41), BI301-23 (irrelevant protein; control), no peptide (i.e. PBS; control), LTNP-sera pools (diluted 1:10 final concentration), or Blood donor sera-pools (diluted 1:10 final concentration; control). Plates were then washed 6x with WB, followed by 1 h incubation at RT with 70 μl/well of Alkaline Phosphatase-conjugated Goat-anti-Rabbit-Ig (6 μg/ml; Dako D0487). Plates were then washed 6x with WB, followed by 10-60 min incubation at RT with 100 μl/well of 0.3% w/v of Phenoftalein monophosphate (Sigma P-5758). Plates were finally quenched by adding 100 μl/well of Quench solution (0.1M TRIS+0.1M EDTA+0.5M NaOH+0.01% w/v NaN3; pH14), followed by ELISA reader (ASYS UVM 340) at 550 nm.

[2] = test system: latently infected cell lines and primary T cells; conditions: cited from earlier work
[3] = test system: pooled human sera from HIV chronically infected individuals, LTNP and non-infected blood donors; assay: Seroreactivity of pooled human sera to peptide-coated magnetic particles (general ELISA principle); format: binding; conditions: peptide 600 μg/ml alone or 300 μg/ml each in combination; positivity determined visually
Procedure: Seroreactivity to SEQ ID NO: 1 alone or in combination with SEQ ID NOs. 6 (with the sequence […]), 8 and 9 was determined according to a general ELISA principle either using magnetic particles as a solid support or attachment of peptides to a 96-well tray.
In the system described below, peptide was coated on to magnetic particles using generally accepted techniques. 300 μg was coated onto particles for all peptides with the exception of SEQ1 where 600 μg was used. SEQ ID NO: 1 (from C5) and SEQ ID NO: 6, 8 and 9 (from gp41) were preincubated overnight at 4 degrees C. to allow interactions to form between between C5 and gp41 sequences respectively and all combined. Sera were then incubated with the peptide coated beads according to established protocols. Visualisation of antibody binding to C5 peptides was achieved using protein G that can bind immunoglobulins from different species coupled to alkaline phosphatase. The positive control was commercially available serum from a sheep immunised with the C5 derived sequence […] (SEQ ID NO: 1).
Pooled sera from 25 LTNP were tested for seroreactivity to SEQ ID NO: 1 alone and SEQ ID NO: 1 when in combination with SEQ ID NOs: 6 ([…]), 8 and 9 respectively and all combined. Pooled sera were also tested from 12 HIV positive, chronically infected individuals and 20 sera from blood donors.

Nc1cccc2c1C(=O)N(C1CCC(=O)NC1=O)C2=O (stereo not shown) [pomalidomide]
Function of T-cells after in vitro stimulation in presence of IMiDs (HIV-specific T-cells): a number of improvements in the function of the T-cells

BI400-B: SEQ ID NO: 38 and SEQ ID NO: 39 linked via Cys and Lys residues (chain 1 GAKRRVVGGCGGAKRRVVQREKRAGEREKRA; chain 2 GKGGIEEEGGRDRDRGGEQDRDR; bridge I:10-II:2 (inferred))
Binding of sera from immunized rabbits to C5/gp41 peptides (C5/gp41 (015/201)): bound to peptides corresponding to C5/gp41 (015/201)
Inhibition of binding of rabbit sera to C5/gp41 (015/201) [1]: could be inhibited
Competition of anti-C5/gp41 rabbit sera by human sera pools ([1]; sera pools diluted 1:10): competitively inhibited by LTNP-sera pools, but not with BD control sera

C/C=C1\NC(=O)[C@H]2CSSCC/C=C/[C@H](CC(=O)N[C@H](C(C)C)C(=O)N2)OC(=O)[C@H](C(C)C)NC1=O [romidepsin, (1S,4S,7Z,10S,16E,21R)-7-ethylidene-4,21-bis(1-methylethyl)-2-oxa-12,13-dithia-5,8,20,23-tetraazabicyclo[8.7.6] tricos-16-ene-3,6,9,19,22-pentone]
Activation of HIV-1 expression [2]: potently activates HIV-1 expression

DRPEGIEEEGGERDR (Glu can be Gly; Gly can be Arg; Arg can be Gln; Asp can be Gly; Arg can be Lys) [SEQ ID NO: 6]
Inhibition of binding of rabbit sera to C5/gp41 (015/201) [1]: could be inhibited

APTKAKRRVVQREKR [SEQ ID NO: 1]
Seroreactivity, Blood-donors pool [3]: =
Inhibition of binding of rabbit sera to C5/gp41 (015/201) [1]: could be inhibited

Nc1cccc2c1CN(C1CCC(=O)NC1=O)C2=O (stereo not shown) [Lenalidomide]
Function of T-cells after in vitro stimulation in presence of IMiDs (HIV-specific T-cells): a number of improvements in the function of the T-cells

GGAIVNGSLADDDIVI [SEQ ID NO: 37]
Inhibition of binding of rabbit sera to C5/gp41 (015/201) [1]: could be inhibited
